Measured values reported in US8188059B2, “Compounds and methods for modulating expression of GCGR” (Isis Pharmaceuticals, Inc., priority 2006, dated 2012).
Strand notation (5' to 3'): a small letter for the sugar, then the base; units joined by * are phosphorothioate-linked, units joined directly phosphodiester-linked; [ ] holds rarer units or linkages, { } end groups; capitals alone tell only the bases. l = locked nucleic acid (LNA); [5mC] = 5-methylcytosine; d = 2'-deoxy (DNA)

What was measured:
[1] = tested on: PTEN mRNA; test: PTEN mRNA levels in liver, kidney and fat, Balb/c mice, single 8 μmol/kg i.p. (Example 6, Table 48); assay type: in vivo, mouse; conditions: 8 μmol/kg single i.p., 72 h, saline = 100
Excerpt: (§1) Each dose group consisted of four animals. Shown in Table 46 are the sequences and motifs of the PTEN antisense compounds used in this study. Bolded residues indicate 2′-O-methoxyethyl moieties (2′-MOE) and italicized residues indicate Methyleneoxy BNA nucleotides. Each antisense compound comprises phosphorothioate linkages throughout. In addition, the cytosine residues in the gap of ISIS 384073 and in the wings of ISIS 392056, ISIS 392057, ISIS 392061 and ISIS 392063 are replaced with 5-methylcytosines. Antisense compounds target published PTEN nucleic acids, including Genbank Accession No. U92437.1 (SEQ ID NO: 13).
(§2) Mice were sacrificed 72 hours following injection to determine serum transaminase levels (Table 47); liver and spleen weights (Table 47); and PTEN mRNA levels in liver, kidney and fat (Table 48), according to procedures described herein and well know to one of ordinary skill in the art.

[2] = Transaminase levels, liver and spleen weights, body weight (Example 6, Table 47); assay type: in vivo, mouse; conditions: 8 μmol/kg single i.p.; 72 h; Balb/c mice
Excerpt: as §1, §2

For “392061 (antisense l[5mC]*lT*dA*dG*dC*dC*dT*dC*dT*dG*dG*dA*lT*lT) [compound 392061]”, the “% PTEN mRNA levels in Fat” value [1] was 85%, the “% PTEN mRNA levels in Kidney” value [1] was 61% and the “% PTEN mRNA levels in Liver” value [1] was 24%. The ALT [2] was 42.0 IU/L, the AST [2] was 189 IU/L and the “Liver Weight” value [2] was 123 % Saline. For the same substance, the “Spleen Weight” value [2] was 111 % Saline.
